The values that follow come from ChEMBL document CHEMBL1201862, “PubChem BioAssay data set” (2004).

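Cells were grown in 96-well plates and exposed to each compound for 48 hours at five concentrations; endpoints were interpolated linearly between bracketing concentrations, or set to the highest concentration if not reached. GI50 = concentration required for 50% inhibition of growth.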 Active and inactive are the calls of the source. Cut-off read from the data, not from the text of the source: active = GI50 up to about 1.1 µM and inactive = higher.

Among the test systems are U-251; SR; MCF7; ACHN; NCI/ADR-RES; HCC 2998; NCI-H23; OVCAR-8; HT-29; SNB-19; Hs-578T; UO-31; SK-MEL-28; PC-3; SN12C; HCT-116; UACC-62; BT-549; IGROV-1; SK-MEL-2.
Test in all cases: NCI anticancer screen, dose series, 48 h

In the case of `C=CCNc1ccc(C)cc1`, the GI50 in the test on U-251, in the test with SR, in the test on MCF7, in the test on ACHN, with NCI/ADR-RES and in the test with HCC 2998 was > 100 µM (inactive) throughout. The GI50 in the test on NCI-H23 is > 100 µM (inactive); in the test with OVCAR-8, > 100 µM (inactive); with HT-29 it was > 100 µM (inactive); with SNB-19 it was > 100 µM (inactive); in the test with Hs-578T it was > 100 µM (inactive); with UO-31, 35 µM (inactive). The GI50 in the test on SK-MEL-28, in the test with PC-3, with SN12C and with HCT-116 was > 100 µM (inactive) in each case.
Turning to `O=c1[nH]c2ccccc2c(=O)n1/N=C\c1ccccc1O`, the GI50 with U-251, with SR, in the test with MCF7, with ACHN, in the test with NCI-H23 and in the test on UACC-62 was > 100 µM (inactive) each time. The GI50 with HT-29 is > 100 µM (inactive); in the test on BT-549, > 100 µM (inactive); with SNB-19 it was > 100 µM (inactive); with Hs-578T, 32.3 µM (inactive); with UO-31 it was > 100 µM (inactive); in the test with IGROV-1, > 100 µM (inactive). The GI50 with SK-MEL-28, with PC-3, with SN12C, in the test with HCT-116 and in the test with SK-MEL-2 was > 100 µM (inactive) each time.
As to `Nc1cc2c(cc1[N+](=O)[O-])[nH]c1c(-c3ccccc3)nccc12`, the GI50 in the test with U-251 was 18.8 µM (inactive); in the test with MCF7, 26 µM (inactive); in the test with NCI/ADR-RES, 14.1 µM (inactive); in the test on HCC 2998, 13.2 µM (inactive); in the test with NCI-H23, 18.7 µM (inactive); with UACC-62, 13.6 µM (inactive). For the same compound, the GI50 in the test on OVCAR-8 is 30.8 µM (inactive); in the test with HT-29, 14.5 µM (inactive); in the test with SNB-19, 23.8 µM (inactive); in the test on UO-31 it was 5.77 µM (inactive); with IGROV-1, 8.65 µM (inactive); with SK-MEL-28 it was 27.1 µM (inactive). Besides, the values for the GI50 in the test with SN12C, with HCT-116 and in the test with SK-MEL-2 were 22.3 µM (inactive), 15.3 µM (inactive) and 20.2 µM (inactive), respectively.
Consider `COc1ccc(C2=CC(c3ccccc3)n3nnnc3N2)cc1` (centres undefined), for which the GI50 in the test with U-251 is 56 µM (inactive); in the test on SR it was > 100 µM (inactive); with MCF7, > 100 µM (inactive); with ACHN it was > 100 µM (inactive); in the test with NCI/ADR-RES it was > 100 µM (inactive); with NCI-H23 it was > 100 µM (inactive). For the same compound, the GI50 in the test with UACC-62 was > 100 µM (inactive); with OVCAR-8, > 100 µM (inactive); in the test with HT-29, > 100 µM (inactive); in the test with SNB-19, > 100 µM (inactive); in the test on Hs-578T, 76.9 µM (inactive); in the test on UO-31, > 100 µM (inactive). The GI50 in the test with IGROV-1, with PC-3, in the test on SN12C, with HCT-116 and with SK-MEL-2 was > 100 µM (inactive) throughout.
`C/C=C(/C)C(=O)O[C@@H]1c2c(C)coc2C[C@H]2CC[C@H](O)[C@H](C)[C@]21C`: the GI50 was > 100 µM (inactive) with U-251; 49.9 µM (inactive) in the test with SR; 26.3 µM (inactive) in the test on MCF7; 36.9 µM (inactive) in the test on ACHN; 23.1 µM (inactive) in the test with NCI/ADR-RES; > 100 µM (inactive) with HCC 2998. Moreover, the GI50 in the test on NCI-H23 was 34.2 µM (inactive); in the test on UACC-62 it was 43.8 µM (inactive); in the test with OVCAR-8 it was 42.5 µM (inactive); in the test with HT-29 it was 47.1 µM (inactive); with SNB-19 it was > 100 µM (inactive); in the test on Hs-578T, 64.7 µM (inactive). Further, the GI50 with UO-31 is 68.2 µM (inactive); in the test on IGROV-1, 43.3 µM (inactive); in the test on SK-MEL-28, 44.8 µM (inactive); in the test with PC-3, 97.7 µM (inactive); in the test on SN12C it was 31.3 µM (inactive); in the test on HCT-116 it was 31.6 µM (inactive).
With `C[n+]1c2ccccc2c(C(=O)Nc2ccc(S(=O)(=O)N=C(N)N)cc2)c2ccccc21`, the GI50 in the test on U-251, with MCF7, with ACHN, in the test with NCI/ADR-RES, in the test on HCC 2998 and with NCI-H23 was > 100 µM (inactive) each time. For the same compound, the GI50 with UACC-62, in the test with OVCAR-8, with HT-29, with SNB-19, with Hs-578T and in the test with UO-31 was > 100 µM (inactive) throughout. For the same compound, the GI50 in the test with IGROV-1 was 35.6 µM (inactive); with SK-MEL-28 it was > 100 µM (inactive); in the test on PC-3, > 100 µM (inactive); with SN12C it was > 100 µM (inactive); in the test on HCT-116, > 100 µM (inactive); with SK-MEL-2, > 100 µM (inactive).
Consider `CCOC(=O)C1(C(=O)OCC)COS(=O)OC1`, for which the GI50 is > 100 µM (inactive) in the test with U-251; 17.8 µM (inactive) in the test on SR; 19.1 µM (inactive) in the test with MCF7; 32.6 µM (inactive) in the test with ACHN; 40 µM (inactive) in the test with NCI/ADR-RES; 47.6 µM (inactive) with HCC 2998. In addition, the GI50 in the test with NCI-H23 was 49.7 µM (inactive); in the test on OVCAR-8, 45.1 µM (inactive); in the test on HT-29, > 100 µM (inactive); in the test on SNB-19, > 100 µM (inactive); in the test on Hs-578T, 83.6 µM (inactive); in the test with UO-31, 70.3 µM (inactive). The GI50 is 35.1 µM (inactive) in the test on SK-MEL-28, > 100 µM (inactive) in the test with PC-3, > 100 µM (inactive) in the test on SN12C and 17.4 µM (inactive) with HCT-116.
`CCOC(=O)C(NC(=O)c1ccccc1)(Nc1ccc(S(=O)(=O)Nc2cc(C)nc(C)n2)cc1)C(F)(F)F` (centres undefined): the GI50 with U-251, in the test on SR, with MCF7, in the test with ACHN, in the test on NCI/ADR-RES and in the test on NCI-H23 was > 100 µM (inactive) each time. Besides, the GI50 in the test on UACC-62, with OVCAR-8, in the test with HT-29, in the test on SNB-19, in the test with Hs-578T and in the test on UO-31 was > 100 µM (inactive) throughout. The GI50 in the test with IGROV-1, with SK-MEL-28, in the test with PC-3, in the test on SN12C, in the test with HCT-116 and with SK-MEL-2 was > 100 µM (inactive) throughout.
Turning to `O=NN(CCCl)C(=O)NC1CCC(CC2CCC(NC(=O)N(CCCl)N=O)CC2)CC1` (centres undefined), the GI50 was 1.24 µM (inactive) with U-251; 17.9 µM (inactive) in the test on SR; 0.316 µM (active) in the test with MCF7; 38.1 µM (inactive) in the test with ACHN; 24.3 µM (inactive) with NCI/ADR-RES; > 100 µM (inactive) with HCC 2998. Also, the GI50 in the test with NCI-H23 is 34.1 µM (inactive); in the test on OVCAR-8 it was 19.9 µM (inactive); in the test with HT-29, > 100 µM (inactive); in the test with SNB-19, 12.2 µM (inactive); with UO-31 it was 46.1 µM (inactive); in the test with IGROV-1, 29.9 µM (inactive). Moreover, the GI50 was > 65.8 µM (inactive) in the test with SK-MEL-28, 28.4 µM (inactive) with SN12C, 30.1 µM (inactive) in the test on HCT-116 and 39.1 µM (inactive) in the test on SK-MEL-2.
On to `O=C1/C(=C\c2cccc(Oc3ccccc3)c2)S(=O)(=O)C(c2ccccc2)N1c1ccc(Cl)cc1` (centres undefined), for which the GI50 with U-251 is 16 µM (inactive); with SR, 8.2 µM (inactive); in the test on MCF7 it was 12.6 µM (inactive); in the test with ACHN, 12.9 µM (inactive); in the test on NCI/ADR-RES, 17.3 µM (inactive); in the test on HCC 2998 it was 56.1 µM (inactive). The GI50 is 24.9 µM (inactive) in the test on NCI-H23; 7.82 µM (inactive) in the test with UACC-62; 16.9 µM (inactive) in the test on OVCAR-8; 14.3 µM (inactive) with HT-29; 22.6 µM (inactive) with BT-549; 25.1 µM (inactive) with SNB-19. The GI50 with UO-31 is 13.7 µM (inactive); with IGROV-1, 14.7 µM (inactive); with SK-MEL-28, 17.8 µM (inactive); in the test on PC-3, 17.1 µM (inactive); in the test with SN12C, 15.6 µM (inactive); in the test on HCT-116 it was 13.9 µM (inactive). Moreover, in the test on SK-MEL-2, the GI50 was 8.36 µM (inactive).
For the compound `CCCCCCCCCCCCCCCCC1=CC(=O)C=C(OC)C1=O`, the GI50 was 32.5 µM (inactive) in the test on U-251; 34.3 µM (inactive) in the test on SR; > 100 µM (inactive) with MCF7; > 100 µM (inactive) in the test with ACHN; 95.5 µM (inactive) in the test on NCI/ADR-RES; > 100 µM (inactive) with HCC 2998. Besides, the GI50 is 62.2 µM (inactive) in the test on NCI-H23; 34.7 µM (inactive) with UACC-62; 49.3 µM (inactive) in the test on OVCAR-8; > 100 µM (inactive) in the test on HT-29; 56.4 µM (inactive) with SNB-19; 37.6 µM (inactive) with Hs-578T. The GI50 was > 100 µM (inactive) with UO-31; > 100 µM (inactive) with IGROV-1; > 100 µM (inactive) with SK-MEL-28; 80.4 µM (inactive) in the test with PC-3; 44 µM (inactive) in the test with SN12C; 56 µM (inactive) in the test on HCT-116. Besides, the GI50 in the test with SK-MEL-2 was > 100 µM (inactive).
Regarding `O=C1CCCn2c3ccccc3c3ccnc1c32`, the GI50 is 40.8 µM (inactive) in the test with U-251; 36.1 µM (inactive) in the test with MCF7; 36.6 µM (inactive) in the test with NCI/ADR-RES; 41.4 µM (inactive) with HCC 2998; 50 µM (inactive) in the test with NCI-H23; 29.2 µM (inactive) in the test with UACC-62. Moreover, the GI50 was 34.6 µM (inactive) with OVCAR-8; 23.9 µM (inactive) with HT-29; 47.3 µM (inactive) with SNB-19; 35 µM (inactive) in the test on UO-31; 34.2 µM (inactive) with IGROV-1; 51.6 µM (inactive) in the test with SK-MEL-28. In addition, the results for the GI50 with SN12C, with HCT-116 and in the test on SK-MEL-2 were 40.8 µM (inactive), 30.1 µM (inactive) and 47.1 µM (inactive), respectively.
